Where two headings read alike, the source gives them in different places.
Target: T1, phospho p-38 alpha kinase (Homo sapiens, UniProt Q16539)
T1 construct: purchased Panvera
Test: P-38 alpha kinase assay (spectrophotometric, pyruvate kinase/lactate dehydrogenase coupled)
Assay type: biochemical
Settings: for IC50: Table 3, rates from […] to 2 h time frame
Protocol: In this assay, the oxidation of NADH was continuously measured spectrophometrically. […] The reaction was initiated by adding ATP. The absorption at 340 nm was monitored continuously for up to 4 hours at 30° C. on Polarstar Optima plate reader (BMG). The kinase activity (reaction rate) was calculated from the slope at the time frame from 1.5 h to 2 h.
For inhibition determinations, test compounds were incubated with the reaction mixture for ˜5 min before adding ATP to start the reaction. […] IC50 values were calculated from a series of % inhibition values determined at a range of concentrations of each inhibitor using Prism to process the data and fit inhibition curves. Generally, the rates obtained at the time frame of 1.5 h to 2 h were used for these calculations.

[1] = read-out: % Inhibition @ concentration, Table 3
[2] = read-out: % inhibition @ concentration, Table 2

T1 sequence (Q16539 whole entry): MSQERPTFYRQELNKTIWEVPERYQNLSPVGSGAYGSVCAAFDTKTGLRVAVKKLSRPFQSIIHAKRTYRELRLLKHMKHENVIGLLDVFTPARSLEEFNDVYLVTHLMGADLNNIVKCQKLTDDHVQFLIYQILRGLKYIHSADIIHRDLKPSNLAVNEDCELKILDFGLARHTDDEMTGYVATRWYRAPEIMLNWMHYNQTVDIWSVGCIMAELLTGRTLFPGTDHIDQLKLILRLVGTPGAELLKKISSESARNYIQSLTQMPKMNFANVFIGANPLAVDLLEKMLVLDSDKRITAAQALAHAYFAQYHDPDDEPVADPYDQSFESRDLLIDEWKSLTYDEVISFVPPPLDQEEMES

Structure (SMILES) | inhibition at 10 µM [1] [%] | IC50 [nM] | further results
CCOC(=O)C(C)Cc1cccc(-n2nc(C(C)(C)C)cc2NC(=O)Nc2cccc3ccccc23)c1 (racemic) [Example 200] |  |  | inhibition at 1 µM [1]: 73%
CC1(C(=O)NCc2cccc(-n3nc(C(C)(C)C)cc3NC(=O)Nc3ccc(Cl)cc3)c2)CC2(C)CC(C)(C1)C(=O)NC2=O (centres unmarked) [Example 10, 1,5,7-trimethyl-2,4-dioxo-3-aza-bicyclo[3.3.1]nonane-7-carboxylic acid 3-{3-t-butyl-5-[3-(4-chloro-phenyl)-ureido]-pyrazol-1-yl}benzylamide] |  |  | inhibition at 10 µM [2]: 83%
CC(C)(C)c1cc(NC(=O)Nc2cccc3ccccc23)n(-c2cccc(C(=O)N3C(=O)OC[C@H]3c3ccccc3)c2)n1 [Example 17, D-1-{5-tert-butyl-2-[3-(2-oxo-4-phenyl-oxazolidinyl-3-carbonyl)phenyl]-2H-pyrazol-3-yl}-3-(naphthalen-1-yl)urea] |  |  | inhibition at 10 µM [2]: 40%
CC(C)(C)c1cc(NC(=O)Nc2cccc3ccccc23)n(-c2cccc(C(=O)N3C(=O)OC[C@@H]3c3ccccc3)c2)n1 [Example 18, L-1-{5-tert-butyl-2-[3-(2-oxo-4-phenyl-oxazolidinyl-3-carbonyl)phenyl]-2H-pyrazol-3-yl}-3-(naphthalen-1-yl)urea] |  |  | inhibition at 10 µM [2]: 60%
CC(C)(C)c1cc(NC(=O)Nc2ccc(F)cc2)n(-c2cccc(CCC(=O)O)c2)n1 [Example 146, 3-(3-{3-t-butyl-5-[3-(4-fluoro-phenyl)-ureido]-pyrazol-1-yl}-phenyl)-propionic acid] | 9 |  | 
CCOC(=O)CCc1cccc(-n2nc(C(C)(C)C)cc2NC(=O)Nc2ccc(OC)cc2)c1 [Example 147, 3-(3-{3-t-butyl-5-[3-(4-methoxy-phenyl)-ureido]-pyrazol-1-yl}-phenyl)-propionic acid ethyl ester] | 27 |  | 
CC(C)(C)c1cc(NC(=O)c2nccc3ccccc23)n(-c2cccc(CCC(=O)O)c2)n1 [Example 150, 3-(3-{3-t-butyl-5-[(isoquinoline-1-carbonyl)-amino]-pyrazol-1-yl}-phenyl)-propionic acid] | 53 |  | 
CCOC(=O)CCc1cccc(-n2nc(C(C)(C)C)cc2NC(=O)c2ccc3ccccc3c2)c1 [Example 154, 3-(3-{3-t-butyl-5-[(naphthalene-2-carbonyl)-amino]-pyrazol-1-yl}-phenyl)-propionic acid ethyl ester] | 21 |  | 
CC(C)(C)c1cc(NC(=O)c2ccc3ccccc3c2)n(-c2cccc(CCC(=O)O)c2)n1 [Example 155] | 58 |  | 
CC(C)(C)c1cc(NC(=O)Nc2ccccc2F)n(-c2cccc(CO)c2)n1 [Example 303, 1-{3-t-butyl-1-[3-(hydroxymethyl)phenyl]-1H-pyrazol-5-yl}-3-(2-fluorophenyl)urea] |  | 89 | 
CC(C)(C)c1cc(NC(=O)Nc2ccccc2F)n(-c2ccc(CC(=O)O)cc2)n1 [Example 306, 2-(4-(3-t-butyl-5-(3-(2-fluorophenyl)ureido)-1H-pyrazol-1-yl)phenyl)acetic acid] |  | 58 | 
CC(C)(C)c1cc(NC(=O)Nc2cccc(F)c2F)n(-c2ccc(CC(=O)O)cc2)n1 [Example 307, 2-(4-(3-t-butyl-5-(3-(2,3-difluorophenyl)ureido)-1H-pyrazol-1-yl)-phenyl)acetic acid] |  | 49 | 
CC(C)(C)c1cc(NC(=O)Nc2cccc3ccccc23)n(-c2cccc(CN3C(=O)CCC3=O)c2)n1 [Example 308, 1-(3-t-butyl-1-{3-[(2,5-dioxopyrrolidin-1-yl)methyl]phenyl}-1H-pyrazol-5-yl)-3-(naphthalen-1-yl)urea] |  | 120 | 
COc1cccc(-n2nc(C(C)(C)C)cc2NC(=O)Nc2ccc(F)cc2)c1 [Example 309, 1-(3-t-butyl-1-(3-methoxyphenyl)-1H-pyrazol-5-yl)-3-(4-fluorophenyl)urea] |  | 300 | 
COc1cccc(-n2nc(C(C)(C)C)cc2NC(=O)Nc2cccc(F)c2)c1 [Example 310, 1-(3-t-butyl-1-(3-methoxyphenyl)-1H-pyrazol-5-yl)-3-(3-fluorophenyl)urea] |  | 130 | 
COc1cccc(-n2nc(C(C)(C)C)cc2NC(=O)Nc2cccc(Cl)c2)c1 [Example 311, 1-(3-t-butyl-1-(3-methoxyphenyl)-1H-pyrazol-5-yl)-3-(3-chlorophenyl)urea] |  | 182 | 
COc1cccc(-n2nc(C(C)(C)C)cc2NC(=O)Nc2cccc(Br)c2)c1 [Example 312, 1-(3-t-butyl-1-(3-methoxyphenyl)-1H-pyrazol-5-yl)-3-(3-bromophenyl)urea] |  | 349 | 
COc1cccc(-n2nc(C(C)(C)C)cc2NC(=O)Nc2cccc(C)c2)c1 [Example 313, 1-(3-t-butyl-1-(3-methoxyphenyl)-1H-pyrazol-5-yl)-3-m-tolylurea] |  | 250 | 
COc1cccc(-n2nc(C(C)(C)C)cc2NC(=O)Nc2ccc(C(F)(F)F)cc2)c1 [Example 314, 1-(3-t-butyl-1-(3-methoxyphenyl)-1H-pyrazol-5-yl)-3-(4-(trifluoromethyl)phenyl)urea] |  | 250 | 
COc1cccc(-n2nc(C(C)(C)C)cc2NC(=O)Nc2cccc(C(F)(F)F)c2)c1 [Example 315, 1-(3-t-butyl-1-(3-methoxyphenyl)-1H-pyrazol-5-yl)-3-(3-(trifluoromethyl)phenyl)urea] | 54 |  | 

Structure (SMILES) | inhibition at 10 µM [1] [%] | IC50 [nM] | further results
COc1cccc(-n2nc(C(C)(C)C)cc2NC(=O)Nc2ccc(Cl)c(C(F)(F)F)c2)c1 [Example 316, 1-(3-t-butyl-1-(3-methoxyphenyl)-1H-pyrazol-5-yl)-3-(4-chloro-3-(trifluoromethyl)phenyl)urea] |  | 420 | 
COc1cccc(-n2nc(C(C)(C)C)cc2NC(=O)Nc2ccc(Cl)c(Cl)c2)c1 [Example 317, 1-(3-t-butyl-1-(3-methoxyphenyl)-1H-pyrazol-5-yl)-3-(3,4-dichlorophenyl)urea] |  | 68 | 
COc1cccc(-n2nc(C(C)(C)C)cc2NC(=O)Nc2ccc(Cl)cc2Cl)c1 [Example 318, 1-(3-t-butyl-1-(3-methoxyphenyl)-1H-pyrazol-5-yl)-3-(2,4-dichlorophenyl)urea] |  | 670 | 
COc1cccc(-n2nc(C(C)(C)C)cc2NC(=O)Nc2cc(Cl)cc(Cl)c2)c1 [Example 319, 1-(3-t-butyl-1-(3-methoxyphenyl)-1H-pyrazol-5-yl)-3-(3,5-dichlorophenyl)urea] |  | 320 | 
CC(C)(C)c1cc(NC(=O)Nc2ccc(Cl)cc2)n(-c2cccc(CN3C(=O)CCC3=O)c2)n1 [Example 320, 1-(3-t-butyl-1-{3-[(2,5-dioxopyrrolidin-1-yl)methyl]phenyl}-1H-pyrazol-5-yl)-3-(4-chlorophenyl)urea] |  | 790 | 
COc1cccc(-n2nc(C(C)(C)C)cc2NC(=O)Nc2ccc([N+](=O)[O-])cc2)c1 [Example 321, 1-(3-t-butyl-1-(3-methoxyphenyl)-1H-pyrazol-5-yl)-3-(4-nitrophenyl)urea] |  | 520 | 
COc1cccc(-n2nc(C(C)(C)C)cc2NC(=O)Nc2ccc(C#N)cc2)c1 [Example 322, 1-(3-t-butyl-1-(3-methoxyphenyl)-1H-pyrazol-5-yl)-3-(4-cyanophenyl)urea] |  | 2020 | 
COc1cccc(-n2nc(C(C)(C)C)cc2NC(=O)Nc2ccc(N(C)C)cc2)c1 [Example 323, 1-(3-t-butyl-1-(3-methoxyphenyl)-1H-pyrazol-5-yl)-3-(4-(dimethylamino)phenyl)urea] | 51 |  | inhibition at 1 µM [1]: 9%
COc1cccc(-n2nc(C(C)(C)C)cc2NC(=O)Nc2cccc(N(C)C)c2)c1 [Example 324, 1-(3-t-butyl-1-(3-methoxyphenyl)-1H-pyrazol-5-yl)-3-(3-(dimethylamino)phenyl)urea] | 40 |  | 
COc1cccc(-n2nc(C(C)(C)C)cc2NC(=O)Nc2cccc(C#N)c2)c1 [Example 325, 1-(3-t-butyl-1-(3-methoxyphenyl)-1H-pyrazol-5-yl)-3-(3-cyanophenyl)urea] | 54 |  | 
COc1cccc(NC(=O)Nc2cc(C(C)(C)C)nn2-c2cccc(OC)c2)c1 [Example 326, 1-(3-t-butyl-1-(3-methoxyphenyl)-1H-pyrazol-5-yl)-3-(3-methoxyphenyl)urea] | 41 |  | 
COc1cccc(-n2nc(C(C)(C)C)cc2NC(=O)Nc2ccsc2)c1 [Example 327, 1-(3-t-butyl-1-(3-methoxyphenyl)-1H-pyrazol-5-yl)-3-(thiophen-3-yl)urea] |  | 810 | 
COc1cccc(-n2nc(C(C)(C)C)cc2NC(=O)Nc2cccnc2)c1 [Example 328, 1-(3-t-butyl-1-(3-methoxyphenyl)-1H-pyrazol-5-yl)-3-(pyridin-3-yl)urea] | 68 |  | 
COc1cccc(-n2nc(C(C)(C)C)cc2NC(=O)Nc2ccc3c(c2)OCO3)c1 [Example 329, 1-(benzo[d][1,3]dioxo-5-yl)-3-(3-t-butyl-1-(3-methoxyphenyl)-1H-pyrazol-5-yl)urea] |  | 250 | 
COc1cccc(-n2nc(-c3ccccc3)cc2NC(=O)Nc2cccc(Cl)c2)c1 [Example 331] | 71 |  | 
COc1cccc(-n2nc(-c3ccccc3)cc2NC(=O)Nc2cccc(Br)c2)c1 [Example 332] |  | 50 | 
COc1cccc(-n2nc(-c3ccccc3)cc2NC(=O)Nc2cccc(C(F)(F)F)c2)c1 [Example 333] |  | 2440 | 
COc1cccc(NC(=O)Nc2cc(-c3ccccc3)nn2-c2cccc(OC)c2)c1 [Example 334, 1-(3-methoxyphenyl)-3-(1-(3-methoxyphenyl)-3-phenyl-1H-pyrazol-5-yl)urea] |  | 2200 | 
COc1cccc(-n2nc(-c3ccccc3)cc2NC(=O)Nc2cccc(Cl)c2Cl)c1 [Example 335] |  | 14 | 
COc1cccc(-n2nc(C)cc2NC(=O)Nc2cccc(Cl)c2)c1 [Example 336, 1-(3-chlorophenyl)-3-(1-(3-methoxyphenyl)-3-methyl-1H-pyrazol-5-yl)urea] | 27 |  | 
